Laboratory results published in patent US20070185153A1 (priority 2005, published 2007).
Counter-ions that a name gives are not always drawn.

Test system: panel of Gram-positive organisms and panel of Gram-negative organisms
Test: organism not typed
Assay type: cell-based
Conditions: read-out: MIC (minimum inhibitory concentration)

Structure (SMILES)	MIC [µg/mL]
O=c1c(Cl)cc2ncc(F)c3c2n1CC3(O)CN1CCC(NCc2cc3c(cn2)OCCO3)CC1 (racemic) [Example 24, (4R/S)-8-Chloro-4-({4-[(2,3-dihydro[1,4]dioxino[2,3-c]pyridin-7-ylmethyl)amino]-1-piperidinyl}methyl)-3-fluoro-4-hydroxy-4,5-dihydro-7H-pyrrolo[3,2,1-de]-1,5-naphthyridin-7-one dihydrochloride]	≤ 4
O=c1[nH]c2ccccc2nc1CNC1CCN(C[C@]2(O)Cn3c(=O)ccc4ncc(F)c2c43)CC1 [Example 38]	≤ 4
O=c1[nH]c(CNC2CCN(C[C@]3(O)Cn4c(=O)ccc5ncc(F)c3c54)CC2)nc2ccccc12 [Example 39]	≤ 4
CC(C)n1nnc2cc(CNC3CCN(C[C@]4(O)Cn5c(=O)ccc6ncc(F)c4c65)CC3)ccc21 [Example 47]	≤ 8
COc1cnc2ccc(=O)n3c2c1[C@](O)(CN1CCC(NCc2cc4c(cn2)OCCO4)CC1)C3 [Example 65]	≤ 8

Same assay, conditions: read-out: MIC values

Structure (SMILES)	MIC [µg/mL]
COc1cnc2ccc(=O)n3c2c1[C@](O)(CN1CCC(NCc2cc4c(nn2)OCCO4)CC1)C3 [Example 66]	≥ 16
